Laboratory results published in patent US20210221812A1, “MATRINE a-KETOAMINE COMPOUNDS, PREPARATION METHOD THEREFOR AND USE THEREOF” (SHANGHAI XINGYE PHARMACEUTICAL TECHNOLOGY CO., LTD, priority 2018, published 2021).
Where two headings read alike, the source gives them in different places.

Columns and labels:
TNF-α = TNF-α activity inhibiting assay (LPS-stimulated peripheral blood, ELISA); type: cell-based, human; details: compound 20 μM, LPS 10 ng/mL, 6 hours, diluted peripheral blood of healthy volunteers; for inhibition at 20 µM: Homo sapiens, read-out: TNF-α inhibition rate (%)
Method: Methods: Peripheral blood from healthy volunteers was collected with EDTA anticoagulant tubes. After being diluted 5-fold with 1640 medium (Gibco, USA), the blood was added to 96-well cell culture plates (Costar, USA) and then treated with 10 μL solution of the compound of general formula (I) of the present invention in DMSO (Sigma, USA), the final concentration of the compound was 20 μM with the final concentration of DMSO was 0.2%. After incubation for 60 minutes in an incubator at 37° C. under 5% CO2, 10 μL LPS (Sigma, USA) was added to the reaction system, and the final concentration was 10 ng/mL. After further culturing for 6 hours in the incubator at 37° C. under 5% CO2, the supernatant was collected. The content of TNF-α was determined by ELISA (BD Biosciences, USA). Absorbance was detected at OD450 nm with a microplate reader, with OD 650 nm as reference. The control, a solution containing 0.2% DMSO medium, was as 0% inhibition. Raw data and standard curves were recorded. The four-parameter drug inhibition curve was plotted by XL-fit software and the inhibition rate of each compound was calculated.

Lovo cells = experiment: MTT tumor cell growth inhibition, Lovo; type: cell-based; details: 48 h, read-out: Tumors growth-inhibitory activity (IC50) Lovo
Method: (§1) Using MTT method to determine the growth inhibition activity of the matrine compounds on Lovo, MGC-803, Mia-paca2, HpeG-2, A549, k562, and Panc-1 cells in vitro. Logarithmic growth phase of Lovo, MGC-803, Mia-paca2, HpeG-2, A549, k562, Panc-1 cells were inoculated into 96-well plates (purchased from Institute of Biochemical Cells, Chinese Academy of Sciences, and cultured according to conventional tumor cell culture methods) at a density of 4×10^4/mL and 180 μL/well; after the cells adhered to the wall, 20 μL of drug solution was added to each well and matined the final drug concentrations were 0.1 μM, 1 μM, 10 μM, 50 μM, 100 μM respectively. After 48 h, 5 mg/mL MTT solution was added (20 μL/well) and maintained in a CO2 incubator for 3-4 h. After that, discarding the supernatant carefully, and DMSO was added (200 μL/well) when the residual liquid was air-dried, and shook for 0.5-1 h until the residual crystals was dissolved. The absorbance OD was measured at 492 nm by a microplate reader. GraphPad Prism 5 software was used to calculate the IC50 value.

MGC-803 cells = experiment: MTT tumor cell growth inhibition, MGC-803; type: cell-based; details: 48 h, read-out: Tumors growth-inhibitory activity (IC50) MGC-803
Method: as §1

Mia-paca2 cells = experiment: MTT tumor cell growth inhibition, Mia-paca2; type: cell-based; details: read-out: Tumors growth-inhibitory activity (IC50) Mia-paca2
Method: as §1

HpeG-2 cells = experiment: MTT tumor cell growth inhibition, HpeG-2; type: cell-based; details: 48 h, read-out: Tumors growth-inhibitory activity (IC50) HpeG-2
Method: as §1

k562 cells = experiment: MTT tumor cell growth inhibition, k562; type: cell-based; details: 48 h, read-out: Tumors growth-inhibitory activity (IC50) k562
Method: as §1

A549 cells = experiment: MTT tumor cell growth inhibition, A549; type: cell-based; details: 48 h, read-out: Tumors growth-inhibitory activity (IC50) A549
Method: as §1

Panc-1 cells = experiment: MTT tumor cell growth inhibition, Panc-1; type: cell-based; details: 48 h, read-out: Tumors growth-inhibitory activity (IC50) Panc-1
Method: as §1

In the case of `O=C1c2ccccc2C(=O)N1C1CC[C@@H]2[C@H]3CCCN4CCC[C@H](CN2C1=O)[C@@H]34` (stereo partly drawn) [GJD 28], the inhibition at 20 µM (TNF-α) is reported as > 50%.

`Cc1cccc2c1C(=O)N(C1CC[C@@H]3[C@H]4CCCN5CCC[C@H](CN3C1=O)[C@@H]45)C2=O` (stereo partly drawn) [GJD 29] was tested, and the inhibition at 20 µM (TNF-α) was > 50%.

In the case of `O=C1c2ccccc2CN1C1CC[C@@H]2[C@H]3CCCN4CCC[C@@H](CN2C1=O)[C@@H]34` (stereo partly drawn) [GJD 30], the inhibition at 20 µM (TNF-α) is reported as < 50%.

With `CC(=O)Nc1cccc2c1CN(C1CC[C@@H]3[C@H]4CCCN5CCC[C@@H](CN3C1=O)[C@@H]45)C2=O` (stereo partly drawn) [GJD 33] the inhibition at 20 µM (TNF-α) was > 50%.

`O=C(Nc1cccc2c1CN(C1CC[C@@H]3[C@H]4CCCN5CCC[C@@H](CN3C1=O)[C@@H]45)C2=O)c1ccccc1` (stereo partly drawn) [GJD 34] showed an IC50 (Lovo cells; Homo sapiens) of 50 to 100 µM, an IC50 (MGC-803 cells; Homo sapiens) of 50 to 100 µM and an IC50 (Mia-paca2 cells; Homo sapiens, MIA PaCa-2, 48 h) of 50 to 100 µM. For the same molecule, the IC50 (HpeG-2 cells) was < 50 µM, the IC50 (k562 cells; Homo sapiens) was < 50 µM and the IC50 (A549 cells; Homo sapiens) was 50 to 100 µM. For the same molecule, the IC50 (Panc-1 cells; Homo sapiens) was 50 to 100 µM.

In the case of `Nc1cccc2c1CN(C1CC[C@@H]3[C@H]4CCCN5CCC[C@@H](CN3C1=O)[C@@H]45)C2=O` (stereo partly drawn) [GJD 35], the inhibition at 20 µM (TNF-α) is reported as > 50%.

For `Cc1cccc2c1CN(C1CC[C@@H]3[C@H]4CCCN5CCC[C@@H](CN3C1=O)[C@@H]45)C2=O` (stereo partly drawn) [GJD 38], the “TNF-α inhibition rate (%)” value (TNF-α) was >50%.

With `Nc1ccc2c(c1)C(=O)N(C1CC[C@@H]3[C@H]4CCCN5CCC[C@@H](CN3C1=O)[C@@H]45)C2` (stereo partly drawn) [GJD 41] the inhibition at 20 µM (TNF-α) was > 50%.

In the case of `Cc1cccc2c1CN(C1CC[C@@H]3[C@H]4CCCN5CCC[C@H](CN3C1=O)[C@@H]45)C2=O` (stereo partly drawn) [GJD 44], the inhibition at 20 µM (TNF-α) is reported as > 50%.

With `Nc1ccc(S(=O)(=O)NC2=CC[C@@H]3[C@H]4CCCN5CCC[C@@H](CN3C2=O)[C@@H]45)cc1` [GJD 47] the IC50 (Lovo cells; Homo sapiens) was 50 to 100 µM, the IC50 (MGC-803 cells; Homo sapiens) was > 100 µM and the IC50 (Mia-paca2 cells; Homo sapiens, MIA PaCa-2, 48 h) was > 100 µM. It also gave an IC50 (HpeG-2 cells) of 50 to 100 µM, an IC50 (k562 cells; Homo sapiens) of 50 to 100 µM and an IC50 (A549 cells; Homo sapiens) of 50 to 100 µM. The IC50 (Panc-1 cells; Homo sapiens) was > 100 µM.

`Nc1ccccc1C(=O)NC1CC[C@@H]2[C@H]3CCCN4CCC[C@@H](CN2C1=O)[C@@H]34` (stereo partly drawn) [GJD 49] was tested, and the inhibition at 20 µM (TNF-α) was > 50%.

For `O=C(NC1CC[C@@H]2[C@H]3CCCN4CCC[C@@H](CN2C1=O)[C@@H]34)c1ccccc1O` (stereo partly drawn) [GJD 50], the inhibition at 20 µM (TNF-α) was > 50%.

For `O=C(NC1CC[C@@H]2[C@H]3CCCN4CCC[C@@H](CN2C1=O)[C@@H]34)c1ccc(OC(F)F)c(OCC2CC2)c1` (stereo partly drawn) [GJD 52], the inhibition at 20 µM (TNF-α) was > 50%, the IC50 (Lovo cells; Homo sapiens) was 50 to 100 µM and the IC50 (MGC-803 cells; Homo sapiens) was 50 to 100 µM. For the same molecule, the IC50 (Mia-paca2 cells; Homo sapiens, MIA PaCa-2, 48 h) was 50 to 100 µM, the IC50 (HpeG-2 cells) was < 50 µM and the IC50 (k562 cells; Homo sapiens) was 50 to 100 µM. The IC50 (A549 cells; Homo sapiens) was < 50 µM and the IC50 (Panc-1 cells; Homo sapiens) was 50 to 100 µM.

`COc1ccc(C(=O)NC2CC[C@@H]3[C@H]4CCCN5CCC[C@@H](CN3C2=O)[C@@H]45)cc1OC1CCCC1` (stereo partly drawn) [GJD 53] was tested, and the inhibition at 20 µM (TNF-α) was > 50%.

In the case of `CCOc1cc(C(=O)NC2CC[C@@H]3[C@H]4CCCN5CCC[C@@H](CN3C2=O)[C@@H]45)ccc1OC` (stereo partly drawn) [GJD 54], the inhibition at 20 µM (TNF-α) is reported as > 50%.

For `O=C1c2cccc(F)c2C(=O)N1C1CC[C@@H]2[C@H]3CCC[N+]4([O-])CCC[C@@H](CN2C1=O)[C@@H]34` (stereo partly drawn) [GJD 65], the “TNF-α inhibition rate (%)” value (TNF-α) was ≥50%.

With `O=C1c2cccc([N+](=O)[O-])c2C(=O)N1C1CC[C@@H]2[C@H]3CCC[N+]4([O-])CCC[C@@H](CN2C1=O)[C@@H]34` (stereo partly drawn) [GJD 66] the “TNF-α inhibition rate (%)” value (TNF-α) was <50%, the IC50 (Lovo cells) was < 50 µM and the IC50 (MGC-803 cells) was 50 to 100 µM. For the same molecule, the IC50 (Mia-paca2 cells; 48 h) was 50 to 100 µM, the IC50 (HpeG-2 cells) was < 50 µM and the IC50 (k562 cells) was < 50 µM. For the same molecule, the IC50 (A549 cells) was < 50 µM and the IC50 (Panc-1 cells) was < 50 µM.

In the case of `O=C1CCC[C@@H]2[C@H]3CCC[N+]4([O-])CCC[C@@H](CN12)[C@@H]34` (stereo partly drawn) [Oxymatrine, oxymatrine, reference compound], the inhibition at 20 µM (TNF-α) is reported as < 50%.

For `O=C1CCC[C@@H]2[C@H]3CCCN4CCC[C@H](CN12)[C@@H]34` [Sophoridine, sophoridine, reference compound], the inhibition at 20 µM (TNF-α) was < 50%.
